Literature values in patent publication US20250332127A1, “SYSTEM AND METHOD FOR DELIVERING THERAPEUTIC AGENTS TO THE UTERINE CAVITY” (priority 2021, published 2025).
Where two headings read alike, the source gives them in different places.

## O=C(O)C(Cl)(Cl)Cl [trichloroacetic acid]
Trichloroacetic acid as used as therapeutic agent
  viscosity: ≥ 1 centipoise

## O=C=O [CO2]
At 20 degrees of Celsius
  viscosity: 0.0147 centipoise
